For three compounds, MIC50, MIC90 and MIC range results are on record in US5958873A, “Oral formulation for treatment of bacteria-induced diseases of the colon” (University of Cincinnati, priority 1997, dated 1999).

The test system of one experiment is Bacteroides fragilis. The experiment can be described thus: In vitro MIC against clinical isolates of B. fragilis (same agar method). The class given is cell-based. Particulars: 23 clinical isolates of B. fragilis; calculated geometrically.
Another experiment concerns C. difficile. The experiment can be described thus: In vitro MIC against clinical isolates of C. difficile (Brucella agar with sheep's blood, anaerobic). Format: cell-based, Clostridium difficile.

Converted amounts (≈) assume the structure as drawn.

For `Cc1ncc([N+](=O)[O-])n1CCO` [metronidazole], in the experiment on Bacteroides fragilis, the MIC50 is given as 1.4 μml and the MIC90 is on record as 2 μml. Besides, in the experiment on C. difficile (60 clinical isolates of C. difficile), the MIC range is given as 0.25-4 μml.

As for `CN[C@H](CC(C)C)C(=O)N[C@H]1C(=O)N[C@@H](CC(N)=O)C(=O)N[C@H]2C(=O)N[C@H]3C(=O)N[C@H](C(=O)N[C@H](C(=O)O)c4cc(O)cc(O)c4-c4cc3ccc4O)[C@H](O)c3ccc(c(Cl)c3)Oc3cc2cc(c3O[C@@H]2O[C@H](CO)[C@@H](O)[C@H](O)[C@H]2O[C@H]2C[C@](C)(N)[C@H](O)[C@H](C)O2)Oc2ccc(cc2Cl)[C@H]1O` [vancomycin], in the experiment with C. difficile, the MIC50 is 0.38 µg/mL (≈ 0.262 µM) and the MIC90 is 0.8 µg/mL (≈ 0.552 µM). Further, in the experiment with C. difficile (in µg/mL), the MIC range is listed as 0.13-2.

Take `CCC[C@@H]1C[C@@H](C(=O)N[C@@H]([C@H]2O[C@H](SC)[C@H](O)[C@@H](O)[C@H]2O)[C@H](C)Cl)N(C)C1` [clindamycin]: in the experiment on Bacteroides fragilis, the MIC50 is listed as 55 μml and the MIC90 was 13 μml.
